Experimental data from patent US9150537B2, “Bicyclic compound and use thereof for medical purposes” (ONO PHARMACEUTICAL CO., LTD., priority 2011, dated 2015).

Columns and labels:
[1] = biological target: T1, mouse FP receptor (Mus musculus, UniProt P43117); test: Measurement of FP agonist activity (intracellular calcium concentration) in FP-CHO cells; format: cell-based; settings: read-out: Agonist activity on various prostanoid receptors: EC50 value, FP
T1 construct: expressed in transfected cells; host or cells: CHO (FP-CHO)
Text: (§1) (1-1) Measurement of Agonist Activity on Various Mouse Prostanoid Receptors
(§2) Using CHO cells (FP-CHO, EP2-CHO, EP4-CHO and IP-CHO, respectively) in which various mouse prostanoid receptors were forcibly expressed, respectively, agonist activity of test compounds on various prostanoid receptors was studied employing an intracellular calcium concentration regarding FP, and an intracellular cyclic AMP (hereinafter, abbreviated as cAMP) production amount regarding IP, EP2 and EP4 as an index.
(§3) The test compound and a control substance (PGE2, PGF2α, and iroprost) were dissolved with dimethyl sulfoxide (DMSO) to prepare a 10 mmol/L solution. Regarding the prepared 10 mmol/L solution, upon use, the 10 mmol/L solution was thawed, stepwisely-diluted using DMSO, and diluted with a buffer solution for measurement or a buffer solution for measurement 2, which was subjected to an experiment. […]
The 96-well UV plate was set in a fluorescent spectral photometer (FDSS-3000, Hamamatsu Photonics K.K.), and an intracellular calcium concentration was measured. […]

[2] = biological target: T2, mouse EP2 receptor (Mus musculus, UniProt Q62053); test: Measurement of EP2 agonist activity (cAMP concentration) in EP2-CHO cells; format: cell-based; settings: cAMP production, read-out: Agonist activity on various prostanoid receptors: EC50 value, EP2
T2 construct: expressed in transfected cells; host or cells: CHO (EP2-CHO)
Text: as §1, §2
(§4) The test compound and a control substance (PGE2, PGF2α, and iroprost) were dissolved with dimethyl sulfoxide (DMSO) to prepare a 10 mmol/L solution. Regarding the prepared 10 mmol/L solution, upon use, the 10 mmol/L solution was thawed, stepwisely-diluted using DMSO, and diluted with a buffer solution for measurement or a buffer solution for measurement 2, which was subjected to an experiment.
(§5) Cells forcibly expressing various mouse prostanoid receptors were standing-cultured at 37° C. in the presence of 5% CO2 using an α-MEM medium (Sigma) (for culturing FP-CHO, EP2-CHO and EP4-CHO) containing inactivated (56° C., 30 minutes) 9.8 vol % dialysed-FBS (Invitrogen) and penicillin-streptomycin-glutamine (GIBCO-BRL), or nucleic acid-containing α-MEM (Sigma) (for culturing IP-CHO) containing inactivated (56° C., 30 minutes) 9.8 vol % dialysed-FBS (Invitrogen) and penicillin-streptomycin glutamine (Invitrogen). Subculturing was performed by the following method.
(§6) The medium was removed, and washed with a phosphate-buffered physiological saline not containing Ca^2+ and Mg^2+ once. A suitable amount of trypsin-EDTA (Invitrogen) was added, this was incubated at 37° C. for about 3 minutes, cells were peeled, and a medium having a volume which is 10-fold a volume of trypsin-EDTA was added to stop an enzymatic reaction. After cells were recovered (120 g) into a centrifuging tube, and centrifuged at room temperature for 3 minutes, the supernatant was removed. Cells were suspended in a suitable amount of a medium, and seeded in a culturing flask. […]

[3] = biological target: T3, mouse EP4 receptor (Mus musculus, UniProt P32240); test: Measurement of EP4 agonist activity (cAMP concentration) in EP4-CHO cells; format: cell-based; settings: cAMP production, read-out: Agonist activity on various prostanoid receptors: EC50 value, EP4
T3 construct: expressed in transfected cells; host or cells: CHO (EP4-CHO)
Text: as §1, §2, §4, §5, §6

[4] = biological target: T4, mouse IP receptor (Mus musculus, UniProt P43252); test: Measurement of IP agonist activity (cAMP concentration) in IP-CHO cells; format: cell-based; settings: cAMP production, read-out: Agonist activity on various prostanoid receptors: EC50 value, IP
T4 construct: expressed in transfected cells; host or cells: CHO (IP-CHO)
Text: as §1, §2, §3

[5] = tested on: male dog (TOYO Beagle); test: Intraocular pressure lowering action in dog after ocular instillation; format: in vivo; settings: ocular instillation 30 μL, maximum among 2, 4, 6, 8, 24 hours, dose 30 μg/mL Example 16 (1), 50 μg/mL latanoprost
Description: (2-1) Intraocular Pressure Lowering Action
To one eye of a male dog (TOYO Beagle) which had been sufficiently acclimated in advance was ocular-instilled 30 μL of the compound of Example 16 (1) which had been adjusted with a base (containing citrate buffer pH 6.5, 0.5% polysorbate 80, 1% propylene glycol, 0.01% benzalkonium chloride) to 0.003% (w/v), respectively. The other eye was not treated. As a positive control compound, latanoprost which is the known compound was used.
Thereafter, an ocular surface anesthetic (Benoxil eye drops 0.4%, Santen Pharmaceutical Co., Ltd.) was subjected to ocular instillation to locally anesthetize eyes, and an intraocular pressure of each test compound before ocular instillation and after 2, 4, 6, 8, and 24 hours from ocular instillation was measured. An intraocular pressure was measured using a pneumatic applanation flat tonometer (Model 30 Classic, REICHERT). An intraocular pressure lowering rate (%) was calculated by the following equation.

[6] = tested on: male rabbit (NewZealandWhite); test: Assessment of ocular stimulating property (Draize score) in rabbit; format: in vivo; settings: ocular instillation 30 μL, 1000 μg/mL, observed 0 to 8 hours (FIG. 1)
Description: (§7) (2-2) Assessment of Ocular Stimulating Property and Aqueous Humor Protein Concentration
To one eye of a male rabbit (NewZealandWhite, 2.0 to 3.0 kg) was ocular-instilled 30 μL of the compound of Example 16 (1) which had been adjusted to 0.1% (w/v) with a base (containing citrate buffer pH 6.5, 0.5% polysorbate 80, 1% propylene glycol, 0.01% benzalkonium chloride), respectively. Thereafter, an aqueous humor in anterior chamber after 0, 1, 2, 4, 6 and 8 hours from ocular instillation was collected, and a protein concentration in the humor was measured. […]
Observation of the ocular general state was performed after 0, 1, 2, 4, 6 and 8 hours from ocular instillation, and visual remark of cornea, iris, and conjunctiva was observed according to determination criteria of the Draize method. A total of points of the resulting assessment points of each item (=A1×B1×5+A2×5+(A3+B3+C3)×2) was assessed as a Draize score. […]
(§8) Regarding any test compound, a dose of 1000 μg/mL was administered and action of each active body was assessed.

[7] = tested on: male rabbit (NewZealandWhite); test: Aqueous humor protein concentration in rabbit after ocular instillation; format: in vivo; settings: ocular instillation 30 μL, 1000 μg/mL, 0 to 8 hours (FIG. 2)
Description: as §7
To one eye of a male rabbit (NewZealandWhite, 2.0 to 3.0 kg) was ocular-instilled 30 μL of the compound of Example 16 (1) which had been adjusted to 0.1% (w/v) with a base (containing citrate buffer pH 6.5, 0.5% polysorbate 80, 1% propylene glycol, 0.01% benzalkonium chloride), respectively. Thereafter, an aqueous humor in anterior chamber after 0, 1, 2, 4, 6 and 8 hours from ocular instillation was collected, and a protein concentration in the humor was measured. As comparative compounds, the aforementioned methyl ester of the compound of Example 12 described in Patent Literature 2 (i.e. compound of Example 10 described in Patent Literature 2) (hereinafter, abbreviated as Comparative Compound C in some cases) and the aforementioned methyl ester of the Comparative Compound B (i.e. optically active body (2S isomer) of the compound of Example 1 (F) described in Patent Literature 1) (hereinafter, abbreviated as Compound D in some cases) were used.
as §8

[8] = tested on: male monkey (crab-eating monkey); test: Intraocular pressure lowering action in monkey under consciousness; format: in vivo; settings: conscious crab-eating monkey, ocular instillation 30 μL, 10 μg/mL Comparative Compound C, 30 μg/mL Example 16 (1)
Description: (2-3) Intraocular Pressure Lowering Action in Monkey Under Consciousness
To a left eye of a male monkey (crab-eating monkey) under consciousness was ocular instillation-administered 30 μL of a solution obtained by adjusting a test substance using the same base as that described above and, to a right eye was ocular instillation-administered 30 μL of a solution of only a base as a control, respectively. An intraocular pressure after administration was measured with time from administration initiation to after 24 hours. Upon measurement of an intraocular pressure, a crab-eating monkey was fixed on a monkey chair, and the monkey was anesthetized by ocular instillation-administering an ocular surface anesthetic (Benoxil eye drops 0.4% Santen Pharmaceutical Co., Ltd.). After mounting of a blepharostat (Handaya Co., Ltd.), an intraocular pressure of both eyes was measured (5 to 8 examples per group) using a pneumatic applanation flat tonometer (Model 30 Classic, REICHERT). A difference in an intraocular pressure value between control eyes and eyes to which a test substance had been administered, was calculated as an intraocular pressure lowering rate using the following equation, and sustainability of intraocular eye lowering action was assessed using a maximum intraocular pressure lowering rate during measurement and an intraocular pressure lowering rate after 24 hours. […]

T3 sequence (P32240 whole entry): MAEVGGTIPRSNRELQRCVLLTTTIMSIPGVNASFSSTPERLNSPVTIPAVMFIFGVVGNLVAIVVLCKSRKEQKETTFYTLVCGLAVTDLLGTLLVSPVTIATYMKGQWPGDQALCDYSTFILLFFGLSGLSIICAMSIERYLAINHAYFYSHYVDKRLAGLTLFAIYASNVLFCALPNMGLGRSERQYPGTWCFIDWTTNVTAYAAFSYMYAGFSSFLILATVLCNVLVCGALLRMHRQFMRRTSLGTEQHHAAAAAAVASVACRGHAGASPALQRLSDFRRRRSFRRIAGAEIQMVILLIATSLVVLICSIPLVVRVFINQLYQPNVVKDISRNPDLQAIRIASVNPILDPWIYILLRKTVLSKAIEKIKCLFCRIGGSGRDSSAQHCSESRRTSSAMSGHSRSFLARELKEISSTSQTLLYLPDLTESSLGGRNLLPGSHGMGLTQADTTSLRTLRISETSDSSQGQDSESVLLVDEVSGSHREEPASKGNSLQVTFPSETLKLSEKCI
T2 sequence (Q62053 whole entry): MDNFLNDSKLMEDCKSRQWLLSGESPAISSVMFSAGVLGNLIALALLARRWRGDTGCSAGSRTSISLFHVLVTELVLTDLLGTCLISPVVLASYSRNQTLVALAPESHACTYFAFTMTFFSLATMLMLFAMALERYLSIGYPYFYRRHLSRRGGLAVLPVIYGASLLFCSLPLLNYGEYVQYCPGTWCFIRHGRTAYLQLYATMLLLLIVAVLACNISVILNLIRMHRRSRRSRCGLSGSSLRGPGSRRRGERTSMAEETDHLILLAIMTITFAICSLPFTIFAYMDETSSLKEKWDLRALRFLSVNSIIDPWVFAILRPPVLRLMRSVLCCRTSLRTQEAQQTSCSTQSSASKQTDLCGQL
T1 sequence (P43117 whole entry): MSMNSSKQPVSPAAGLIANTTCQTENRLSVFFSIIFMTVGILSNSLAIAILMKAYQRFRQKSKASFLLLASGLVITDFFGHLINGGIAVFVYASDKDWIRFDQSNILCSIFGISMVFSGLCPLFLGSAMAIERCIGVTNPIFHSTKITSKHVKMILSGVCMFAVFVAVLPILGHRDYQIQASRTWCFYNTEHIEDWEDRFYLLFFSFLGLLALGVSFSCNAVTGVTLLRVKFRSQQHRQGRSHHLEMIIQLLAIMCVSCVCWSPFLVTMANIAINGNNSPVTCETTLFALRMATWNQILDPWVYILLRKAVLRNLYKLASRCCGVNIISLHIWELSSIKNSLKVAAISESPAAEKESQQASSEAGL
T4 sequence (P43252 whole entry): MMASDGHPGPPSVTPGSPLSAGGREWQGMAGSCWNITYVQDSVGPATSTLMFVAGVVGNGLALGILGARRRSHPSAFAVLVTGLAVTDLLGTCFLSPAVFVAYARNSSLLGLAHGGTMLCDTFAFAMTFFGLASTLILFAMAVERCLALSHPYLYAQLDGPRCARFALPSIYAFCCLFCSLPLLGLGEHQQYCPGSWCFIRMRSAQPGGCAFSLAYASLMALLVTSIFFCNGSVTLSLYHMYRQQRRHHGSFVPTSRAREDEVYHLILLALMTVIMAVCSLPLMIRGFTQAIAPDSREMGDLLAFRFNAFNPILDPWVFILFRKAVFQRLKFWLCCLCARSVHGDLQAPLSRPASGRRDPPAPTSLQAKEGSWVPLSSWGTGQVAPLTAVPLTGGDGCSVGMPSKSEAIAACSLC

Structure (SMILES)	EC50 [1]	EC50 [2]	EC50 [3]	EC50 [4]	Maximum of intraocular pressure lowering rate [5]	Classification of ocular stimulating property from maximum of the Draize score [6]	Action on protein concentration in aqueous humor [7]	Intraocular pressure lowering rate after 24 hours ([8]; 24 hours)	Maximum intraocular pressure lowering rate [8]
CCCCC[C@H](O)/C=C/[C@@H]1[C@H]2CC[C@H](CCCC(=O)O)S[C@H]2C[C@H]1O [Comparative Compound B, 4-{(2S,4aR,5R,6R,7aS)-6-hydroxy-5-[(1E,3S)-3-hydroxy-1-octen-1-yl]octahydrocyclopenta[b]thiopyran-2-yl}butanoic acid, reference compound]	8.9 nM	22 nM	380 nM	890 nM					
O=C(O)CCC[C@H]1CC[C@@H]2[C@@H](/C=C/[C@@H](O)COc3ccccc3)[C@H](O)C[C@@H]2S1 [Example 15, 4-{(2S,4aR,5R,6R,7aS)-6-hydroxy-5-[(1E,3R)-3-hydroxy-4-phenoxy-1-buten-1-yl]octahydrocyclopenta[b]thiopyran-2-yl}butanoic acid]	3.4 nM	> 100000 nM	> 100000 nM	6100 nM					
CC(C)OC(=O)CCC[C@H]1CC[C@@H]2[C@@H](/C=C/[C@@H](O)COc3ccccc3)[C@H](O)C[C@@H]2S1 [Example 16 (1), 2-Propanyl 4-{(2S,4aR,5R,6R,7aS)-6-hydroxy-5-[(1E,3R)-3-hydroxy-4-phenoxy-1-buten-1-yl]octahydrocyclopenta[b]thiopyran-2-yl}butanoate]					34.2%	non-stimulating substance (A Draize score of 0 or more and 5 or less was a non-stimulating substance)	no action of raising a protein concentration in an aqueous humor	23.1 ± 2.7%	25.3 ± 2.4%
O=C(O)CCC[C@H]1CC[C@@H]2[C@@H](/C=C/[C@@H](O)COc3ccccc3)[C@H](O)C[C@@H]2O1 [Comparative Compound A]		> 100000 nM	6100 nM						
